Test results from US20020052504A1, “PIPERIDINE DERIVATIVES AND THEIR USE AS TACHYKININ ANTAGONISTS” (priority 1997, published 2002).
Structures can show the parent of a compound that is named as a salt.

Target: human NK1 receptor (Homo sapiens, UniProt P25103)
Assay: NK1 receptor test by the methods of WO 93/01165 (pages 36 to 39)
Format: binding
Method: The exemplified compounds of this invention were tested by the methods set out at pages 36 to 39 of International Patent Specification No. WO 93/01165.

human NK1 receptor, sequence (P25103 whole entry): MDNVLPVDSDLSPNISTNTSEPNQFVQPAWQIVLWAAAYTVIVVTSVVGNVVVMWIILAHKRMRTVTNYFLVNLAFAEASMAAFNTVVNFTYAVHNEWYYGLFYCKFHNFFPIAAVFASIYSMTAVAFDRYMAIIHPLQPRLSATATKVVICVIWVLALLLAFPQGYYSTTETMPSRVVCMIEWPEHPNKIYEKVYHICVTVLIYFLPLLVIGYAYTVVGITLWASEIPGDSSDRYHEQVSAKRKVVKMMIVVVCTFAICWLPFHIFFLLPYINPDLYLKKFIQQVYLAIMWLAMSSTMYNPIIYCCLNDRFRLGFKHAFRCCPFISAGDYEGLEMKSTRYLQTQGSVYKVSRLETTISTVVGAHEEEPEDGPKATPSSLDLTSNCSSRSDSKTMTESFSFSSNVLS

| IC50 [nM] | SMILES |
| --- | --- |
| 0.08 | FC(F)(F)c1nnnn1-c1ccc(OC2CC2)c(CN[C@H]2CCCN[C@H]2c2ccccc2)c1 [Example 1, (2 S3 S)-N-({2-Cyclopropoxy-5-[5-(trifluoromethyl)tetrazol-1-yl]phenyl}methyl)-2-phenylpiperidin-3-amine Dihydrochloride] |
| 0.13 | Fc1ccc(C2NCCCC2NCc2cc(-n3nnnc3C(F)(F)F)ccc2OC2CC2)cc1 (racemic) [Example 2, (±)-(2 R3 R 2 S3 S)-N-({2-Cyclopropoxy-5-[5-(trifluoromethyl)tetrazol-1-yl]phenyl}methyl)-2-(4-fluorophenyl)piperidin-3-amine Dihydrochloride] |
